Data: article PMC9718795, “Caffeic acid N-[3,5-bis(trifluoromethyl)phenyl] amide as a non-steroidal inhibitor for steroid 5α-reductase type 1 using a human keratinocyte cell-based assay and molecular dynamics” (Scientific Reports, 2022)

Legend:
[1] = In vitro cytotoxic MTT assay against HaCaT cells; type: cell-based, human; details: human, HaCaT cells (human keratinocytes), read-out: Cytotoxicity IC50 against HaCaTs
Experimental: (§1) The cytotoxicity of caffeic acid and its amide derivatives were evaluated with two cell lines, human keratinocyte (HaCaT) and DP cells, using the common cell viability assay with MTT. HaCaT and DP cells were seeded at 1 × 10^4 cell/well in 96-well plates in a complete DMEM medium, incubated overnight, and treated with test compounds at 0–50 µM for 24 h. The stock solutions of all the test compounds were prepared in DMSO. Each compound was serially diluted in DMEM to achieve concentrations at 0.5–50 µM; DMEM was used as the negative control. After 24 h of treatment, the culture medium was removed, and cell viability was determined by adding 100 µL of 0.5 mg/mL MTT at 37 °C in darkness for 3 h. After removing the MTT solution, 100 µL of DMSO was added to each well to dissolve the purple formazan crystals. The absorbance was measured at 570 nm using a microplate reader, and the IC50 value was calculated. Each experiment was performed in triplicates.

[2] = system: dermal papilla (DP) cells; assay: In vitro cytotoxic MTT assay against DP cells; type: cell-based, human; details: 0.5–50 µM, 24 h
Experimental: as §1

HaCaTs-produced SRD5A1 = molecular target: T1, HaCaTs-produced SRD5A1 (Homo sapiens, UniProt P18405); assay: Whole-cell-based kinetic study of HaCaT-produced SRD5A1 with HPTLC; parameters: Apparent Vmax: unit not given here; details: 12 h
T1 construct: HaCaTs-produced SRD5A1 smoothly converted testosterone to DHT; endogenous in cells; host or cells: HaCaT human keratinocytes
T1 sequence (P18405 1-259): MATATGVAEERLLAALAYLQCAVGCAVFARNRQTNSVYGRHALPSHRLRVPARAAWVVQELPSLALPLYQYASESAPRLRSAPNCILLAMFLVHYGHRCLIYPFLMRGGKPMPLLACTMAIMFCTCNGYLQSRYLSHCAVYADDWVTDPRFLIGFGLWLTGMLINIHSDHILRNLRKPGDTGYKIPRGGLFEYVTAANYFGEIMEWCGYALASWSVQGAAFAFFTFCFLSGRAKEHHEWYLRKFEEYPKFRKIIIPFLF
Experimental: The in vitro whole HaCaT cell-based assay for the kinetic inhibition against SRD5A1 included culturing the cells for 48 h, treating the cells with testosterone and compound 4 for 12 h and evaluating the % intensity of DHT and cell viability using HPTLC analysis and MTT assay, respectively. The HaCaT cells were seeded and incubated as same as the method shown in 3.8. For the evaluation of dose-dependent activity of testosterone, the different concentration of testosterone (0 − 50 μM) and DMEM with 0.1% DMSO were added. […] DMEM with 0.1% DMSO was used as negative control. Then, the cells were incubated for 12 h. The collection of cell culture medium, extraction process, sample preparation and HPTLC detection were prepared by the method mentioned above (3.8). The obtaining chromatogram was visualized by CAMAG HPTLC Software vision CATS and analyzed by Image J software. The percentage of DHT intensity was calculated based on the intensity of DHT normalized by the standard of DHT at 100 μM. At the same time, the cell viability of the treated cells was assessed by the MTT assay. Each experiment was repeated in triplicate.

[3] = molecular target: T2, steroid 5α-reductase type 1 (SRD5A1) (Homo sapiens, UniProt P18405); assay: HaCaT cell-based SRD5A1 inhibitory assay with direct DHT detection by HPTLC
T2 construct: HaCaTs-produced SRD5A1 smoothly converted testosterone to DHT; endogenous in cells; host or cells: HaCaT human keratinocytes
T2 sequence (P18405 1-259): T1 sequence (P18405 1-259)

[4] = system: SRD5A1 protein expression; assay: Western blot of SRD5A1 protein expression in HaCaT cells; type: cell-based, human
Experimental: HaCaT cells (1 × 10^5 cells/well in 6-well plates) were cultured in DMEM with or without compound 4 (0–2.5 µM) for 12 and 24 h. The cells were lysed with RIPA buffer containing 1% protease inhibitor and 1% phosphatase inhibitor on ice for 45 min. Then, the total protein from each sample was determined by bicinchoninic acid (BCA) protein assay kit (Cat No. 23225, Thermo Fisher Scientific, Rockford, IL, USA). The equal amount (40 µg) of protein sample was mixed with loading buffer and heated at 95 °C for 5 min before loaded to 10% sodium dodecyl sulfate–polyacrylamide gels (SDS-PAGE). The proteins were transferred onto PVDF membrane, which was further blocked with 5% BSA in TBST (25 mmol/L Tris–HCl; pH 7.4, 125 mmol/L NaCl, 0.1% Tween 20) at room temperature for 1 h. The primary antibody specific to SRD5A1 (1TFS-AB-PA575919, Thermo Fisher Scientific, Rockford, IL, USA) in dilution 1:1000 was added onto the membrane and incubated overnight at 4 °C. Then the membrane was washed 3 times × 7 min with TBST following with the immersion in the specific secondary antibody conjugated with horseradish peroxidase (HRP) for 1 h at room temperature. The signal of target protein was determined by using chemiluminescence HRP substrate (Thermo Scientific, Rockford, IL, USA) and the intensity of target protein was analyzed by analyst/PC densitometric software (Bio-Rad, Hercules, CA, USA).

[5] = Cell viability (MTT) run in parallel with the HaCaT-based SRD5A1 inhibitory assay; parameters: species or system human; details: human, HaCaT cells, HaCaT, 24 h
HaCaT cells = assay: as above; parameters: species or system human; details: HaCaT

Apparent Vmax (HaCaTs-produced SRD5A1; compound 4 0.2 µM): 96.08
Apparent Vmax (HaCaTs-produced SRD5A1; compound 4 0.5 µM): 76.27
Apparent Vmax (HaCaTs-produced SRD5A1; compound 4 1.0 µM): 74.06
Apparent Vmax (HaCaTs-produced SRD5A1; compound 4 2.5 µM): 69.85
Ki (HaCaTs-produced SRD5A1; mixed-model inhibition analysis, non-linear): 2380 nM
% DHT intensity ± S.D. (HaCaTs-produced SRD5A1; testosterone 1 µM, compound 4 0.2 µM): 0.83 ± 0.219%
% DHT intensity ± S.D. (HaCaTs-produced SRD5A1; testosterone 1 µM, compound 4 0.5 µM): 0.70 ± 0.16%
% DHT intensity ± S.D. (HaCaTs-produced SRD5A1; testosterone 1 µM, compound 4 1.0 µM): 0.12 ± 0.01%
% DHT intensity ± S.D. (HaCaTs-produced SRD5A1; testosterone 1 µM, compound 4 2.5 µM): 0.13 ± 0.03%
% DHT intensity ± S.D. (HaCaTs-produced SRD5A1; testosterone 5 µM, compound 4 0.2 µM): 29.00 ± 1.829%
% DHT intensity ± S.D. (HaCaTs-produced SRD5A1; testosterone 5 µM, compound 4 0.5 µM): 44.57 ± 9.66%
% DHT intensity ± S.D. (HaCaTs-produced SRD5A1; testosterone 5 µM, compound 4 1.0 µM): 34.49 ± 3.82%
% DHT intensity ± S.D. (HaCaTs-produced SRD5A1; testosterone 5 µM, compound 4 2.5 µM): 0.31 ± 0.04%
% DHT intensity ± S.D. (HaCaTs-produced SRD5A1; testosterone 10 µM, compound 4 0.2 µM): 48.11 ± 5.339%
% DHT intensity ± S.D. (HaCaTs-produced SRD5A1; testosterone 10 µM, compound 4 0.5 µM): 23.04 ± 2.83%
% DHT intensity ± S.D. (HaCaTs-produced SRD5A1; testosterone 10 µM, compound 4 1.0 µM): 27.21 ± 2.98%
% DHT intensity ± S.D. (HaCaTs-produced SRD5A1; testosterone 10 µM, compound 4 2.5 µM): 30.48 ± 5.08%
% DHT intensity ± S.D. (HaCaTs-produced SRD5A1; testosterone 25 µM, compound 4 0.2 µM): 86.19 ± 4.08%
% DHT intensity ± S.D. (HaCaTs-produced SRD5A1; testosterone 25 µM, compound 4 0.5 µM): 71.91 ± 2.00%
% DHT intensity ± S.D. (HaCaTs-produced SRD5A1; testosterone 25 µM, compound 4 1.0 µM): 68.49 ± 0.95%
% DHT intensity ± S.D. (HaCaTs-produced SRD5A1; testosterone 25 µM, compound 4 2.5 µM): 46.20 ± 0.91%
% DHT intensity ± S.D. (HaCaTs-produced SRD5A1; testosterone 50 µM, compound 4 0.2 µM): 90.49 ±10.32%
% DHT intensity ± S.D. (HaCaTs-produced SRD5A1; testosterone 50 µM, compound 4 0.5 µM): 72.72 ± 12.38%
% DHT intensity ± S.D. (HaCaTs-produced SRD5A1; testosterone 50 µM, compound 4 1.0 µM): 65.61 ± 2.06%
% DHT intensity ± S.D. (HaCaTs-produced SRD5A1; testosterone 50 µM, compound 4 2.5 µM): 55.01 ± 2.40%
Mode of SRD5A1 inhibition (HaCaTs-produced SRD5A1; whole-cell): mixed inhibition
Concentration dependence of inhibition of DHT production ([3]; 0.2–2.5 µM, HaCaT): concentration-dependent inhibition
IC50 ([3]; HaCaT cells, 10 µM testosterone, 24 h, read-out: IC50 of inhibition of DHT production (SRD5A1 activity)): 1440 ± 130 nM
inhibition at 2.5 µM ([3]; HaCaT, 2.5 µM, 12 h, read-out: Inhibition of SRD5A1 enzyme activity): ~50%
inhibition at 1 µM ([3]; HaCaT, compound 1.0 µM, HaCaT, 24 h, read-out: % Inhibition of DHT production ± SD): 46%
Potency of DHT inhibition relative to avicequinone C ([3]; IC50 1.44 vs 4.45 µM): 3 times
% Inhibition of DHT production ± SD ([3]; compound 1.0 µM, HaCaT, 24 h, 1 µM): 45.67 ± 3.57%
Structure (SMILES): O=C(C=Cc1ccc(O)c(O)c1)Nc1cc(C(F)(F)F)cc(C(F)(F)F)c1 [Compound 4, 3-(3,4-dihydroxyphenyl)-N-[3,5-bis (trifluoromethyl)phenyl]-2-propenamide]
IC50 at 24 h [1]: 30000 ± 8690 nM
Toxicity against DP cells [2]: no toxicity
Suppression of SRD5A1 protein expression relative to untreated control ([4]; 2.5 µM, 24 h): > 50%
SRD5A1 protein expression relative to control ([4]; 1 and 2.5 µM, 24 h): significant decrease
SRD5A1 protein level relative to control ([4]; 12 h): no significant changes
viability at 24 h, 1 µM ([5]; compound 1.0 µM, read-out: % Cell viability ± SD): 88%
viability at 24 h, 5 µM ([5]; compound 5 µM, read-out: Viability of treated cells): < 80%
Cytotoxicity between control and treatment groups (HaCaT cells; 0.2, 0.5, 1 and 2.5 µM): no significant cytotoxicity
% Cell viability ± SD (HaCaT cells; compound 1.0 µM, 24 h, 1 µM): 87.85 ± 1.13%
